Assay results reported in patent publication US10526316B2, “Quinoxaline and pyridopyrazine derivatives as PI3Kβ inhibitors” (Janssen Pharmaceutica NV, priority 2015, dated 2020).
Where two headings read alike, the source gives them in different places.

How the values were obtained:
PI3Kβ = biological target: T1, PI3Kβ (Homo sapiens, UniProt P42338); assay: Enzyme binding assay (KINOMEscan, DiscoveRx); conditions: PIK3Cβ_h, read-out: Kd PIK3Cβ_h
T1 construct: purchased DiscoveRx Corporation, San Diego (contract service, KINOMEscan)
Summary of the method: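 Using the KINOMEscan format, the enzyme binding affinity of each compound was determined. Each value is the inhibitor binding constant, Kd (nM).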

PI3Kδ = biological target: T2, PI3Kδ (Homo sapiens, UniProt O00329); assay: Enzyme binding assay (KINOMEscan, DiscoveRx); conditions: PIK3Cδ_h
T2 construct: purchased DiscoveRx Corporation, San Diego (contract service, KINOMEscan)
T2 sequence (O00329 1-1044): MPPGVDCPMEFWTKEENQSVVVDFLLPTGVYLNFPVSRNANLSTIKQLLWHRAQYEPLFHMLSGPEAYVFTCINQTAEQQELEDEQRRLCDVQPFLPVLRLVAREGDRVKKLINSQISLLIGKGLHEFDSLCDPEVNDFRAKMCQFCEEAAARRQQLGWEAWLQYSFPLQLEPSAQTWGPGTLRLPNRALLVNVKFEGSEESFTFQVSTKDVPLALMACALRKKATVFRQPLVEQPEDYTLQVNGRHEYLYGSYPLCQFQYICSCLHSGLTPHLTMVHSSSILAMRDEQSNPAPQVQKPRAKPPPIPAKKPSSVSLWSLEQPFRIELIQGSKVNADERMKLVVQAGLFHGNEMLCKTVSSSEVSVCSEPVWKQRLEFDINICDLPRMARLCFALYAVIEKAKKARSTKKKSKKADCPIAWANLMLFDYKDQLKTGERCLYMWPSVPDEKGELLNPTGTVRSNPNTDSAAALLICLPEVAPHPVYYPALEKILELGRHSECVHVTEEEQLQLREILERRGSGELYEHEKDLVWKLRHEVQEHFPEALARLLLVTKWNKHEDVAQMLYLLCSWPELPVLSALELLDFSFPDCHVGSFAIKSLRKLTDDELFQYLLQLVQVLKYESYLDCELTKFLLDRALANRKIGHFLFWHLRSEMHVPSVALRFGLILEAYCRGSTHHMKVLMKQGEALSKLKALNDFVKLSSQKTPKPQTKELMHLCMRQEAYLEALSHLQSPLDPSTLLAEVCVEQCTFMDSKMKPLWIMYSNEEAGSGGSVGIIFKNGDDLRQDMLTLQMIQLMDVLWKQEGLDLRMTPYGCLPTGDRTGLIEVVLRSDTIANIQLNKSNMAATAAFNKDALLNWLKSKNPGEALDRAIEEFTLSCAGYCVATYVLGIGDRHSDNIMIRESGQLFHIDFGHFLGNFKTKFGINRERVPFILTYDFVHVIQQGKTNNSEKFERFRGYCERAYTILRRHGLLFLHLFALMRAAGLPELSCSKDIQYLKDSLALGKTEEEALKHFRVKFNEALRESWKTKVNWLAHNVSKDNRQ
Summary of the method: (§1)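 Uses KINOMEscan technology to determine binding affinity toward the kinase enzymes.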

kinase enzymes [1] = biological target: T3, kinase enzymes (Homo sapiens, UniProt P42336); assay: Enzyme binding assay (KINOMEscan, DiscoveRx), further kinases of Table A; conditions: PIK3Cα_h
T3 construct: purchased DiscoveRx Corporation, San Diego (contract service, KINOMEscan)
Summary of the method: as §1

kinase enzymes [2] = biological target: T4, kinase enzymes (Homo sapiens, UniProt P42345); assay: as above; conditions: MTOR_h
T4 construct: purchased DiscoveRx Corporation, San Diego (contract service, KINOMEscan)
Summary of the method: as §1

kinase enzymes [3] = biological target: T5, kinase enzymes (Homo sapiens, UniProt P48736); assay: as above; conditions: PIK3Cγ_h
T5 construct: purchased DiscoveRx Corporation, San Diego (contract service, KINOMEscan)
Summary of the method: as §1

[4] = test system: Akt phosphorylated at Ser473 in PC-3 cells; assay: Cellular assay: phosphorylation of Akt at Ser473 in PC-3 cells (MSD ELISA); type: cell-based; conditions: PC-3 cells, 60 min compound incubation, MSD ELISA, read-out: IC50 pAkt_S473
Summary of the method: (§2)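 PC-3 cells were exposed to compound or 0.3% DMSO for 60 min at 37° C, 5% CO2, then lysed in ice-cold buffer. Phospho-Akt was captured on site-specific antibody-coated plates and detected with Sulfo-tag anti-total Akt by electrochemiluminescence. IC50 values came from five-concentration response curves.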

[5] = test system: Akt phosphorylated at Thr308 in PC-3 cells; assay: Cellular assay: phosphorylation of Akt at Thr308 in PC-3 cells (MSD ELISA); type: cell-based; conditions: PC-3 cells, 60 min compound incubation, MSD ELISA, read-out: IC50 pAkt_Thr308
Summary of the method: as §2

T1 sequence (P42338 whole entry): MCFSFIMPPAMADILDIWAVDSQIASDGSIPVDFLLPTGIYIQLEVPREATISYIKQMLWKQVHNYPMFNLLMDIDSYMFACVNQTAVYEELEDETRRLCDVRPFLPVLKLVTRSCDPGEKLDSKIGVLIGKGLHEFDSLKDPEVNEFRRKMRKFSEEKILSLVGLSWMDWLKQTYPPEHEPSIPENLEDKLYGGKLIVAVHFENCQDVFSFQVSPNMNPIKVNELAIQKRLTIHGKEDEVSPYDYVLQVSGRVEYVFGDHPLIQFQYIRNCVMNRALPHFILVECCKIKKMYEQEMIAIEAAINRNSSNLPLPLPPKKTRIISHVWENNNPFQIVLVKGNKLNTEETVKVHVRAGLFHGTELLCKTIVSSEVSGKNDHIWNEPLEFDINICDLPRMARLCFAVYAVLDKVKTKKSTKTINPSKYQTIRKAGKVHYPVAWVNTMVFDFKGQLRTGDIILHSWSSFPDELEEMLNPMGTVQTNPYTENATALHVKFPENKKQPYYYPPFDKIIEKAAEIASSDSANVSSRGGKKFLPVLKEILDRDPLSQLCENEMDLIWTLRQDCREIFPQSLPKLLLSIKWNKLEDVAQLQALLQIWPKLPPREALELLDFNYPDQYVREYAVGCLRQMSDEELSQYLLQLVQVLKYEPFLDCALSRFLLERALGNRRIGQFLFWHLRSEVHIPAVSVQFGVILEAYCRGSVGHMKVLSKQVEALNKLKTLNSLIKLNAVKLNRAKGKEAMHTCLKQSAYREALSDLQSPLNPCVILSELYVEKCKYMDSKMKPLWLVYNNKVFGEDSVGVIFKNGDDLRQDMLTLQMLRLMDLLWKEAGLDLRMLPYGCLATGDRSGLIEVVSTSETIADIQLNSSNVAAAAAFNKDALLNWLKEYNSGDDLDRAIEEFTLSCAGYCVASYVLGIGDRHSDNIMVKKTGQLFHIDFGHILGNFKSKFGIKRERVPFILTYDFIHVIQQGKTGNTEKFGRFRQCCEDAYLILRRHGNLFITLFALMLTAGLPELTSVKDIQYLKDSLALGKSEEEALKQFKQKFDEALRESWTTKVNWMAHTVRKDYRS
T5 sequence (P48736 whole entry): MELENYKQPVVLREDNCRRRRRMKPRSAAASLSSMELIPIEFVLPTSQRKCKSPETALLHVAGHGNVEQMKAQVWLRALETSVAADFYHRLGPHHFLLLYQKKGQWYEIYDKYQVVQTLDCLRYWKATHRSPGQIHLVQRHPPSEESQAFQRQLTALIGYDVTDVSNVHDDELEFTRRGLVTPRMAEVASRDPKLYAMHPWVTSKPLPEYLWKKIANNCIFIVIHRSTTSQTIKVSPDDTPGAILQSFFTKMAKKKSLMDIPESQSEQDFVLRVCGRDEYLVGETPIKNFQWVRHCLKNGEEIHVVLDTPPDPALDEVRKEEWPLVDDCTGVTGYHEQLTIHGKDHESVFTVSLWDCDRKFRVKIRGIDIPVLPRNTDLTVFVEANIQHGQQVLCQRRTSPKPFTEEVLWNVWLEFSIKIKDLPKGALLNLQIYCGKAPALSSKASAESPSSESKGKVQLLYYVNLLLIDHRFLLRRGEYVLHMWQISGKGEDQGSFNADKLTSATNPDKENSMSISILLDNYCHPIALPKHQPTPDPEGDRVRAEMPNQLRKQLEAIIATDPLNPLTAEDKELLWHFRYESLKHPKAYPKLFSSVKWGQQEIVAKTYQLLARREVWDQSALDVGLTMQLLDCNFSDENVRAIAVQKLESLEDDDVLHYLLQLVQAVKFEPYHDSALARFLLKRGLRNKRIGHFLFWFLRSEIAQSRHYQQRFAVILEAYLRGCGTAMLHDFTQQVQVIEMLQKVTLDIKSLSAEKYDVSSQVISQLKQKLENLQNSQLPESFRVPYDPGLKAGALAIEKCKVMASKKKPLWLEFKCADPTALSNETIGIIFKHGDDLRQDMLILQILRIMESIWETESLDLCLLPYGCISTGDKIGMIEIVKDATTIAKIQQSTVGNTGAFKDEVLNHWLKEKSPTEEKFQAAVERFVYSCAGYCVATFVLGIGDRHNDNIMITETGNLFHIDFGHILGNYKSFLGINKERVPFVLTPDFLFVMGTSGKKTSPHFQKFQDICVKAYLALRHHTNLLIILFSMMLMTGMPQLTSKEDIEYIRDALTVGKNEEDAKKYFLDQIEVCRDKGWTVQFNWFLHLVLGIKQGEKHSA
T3 sequence (P42336 whole entry): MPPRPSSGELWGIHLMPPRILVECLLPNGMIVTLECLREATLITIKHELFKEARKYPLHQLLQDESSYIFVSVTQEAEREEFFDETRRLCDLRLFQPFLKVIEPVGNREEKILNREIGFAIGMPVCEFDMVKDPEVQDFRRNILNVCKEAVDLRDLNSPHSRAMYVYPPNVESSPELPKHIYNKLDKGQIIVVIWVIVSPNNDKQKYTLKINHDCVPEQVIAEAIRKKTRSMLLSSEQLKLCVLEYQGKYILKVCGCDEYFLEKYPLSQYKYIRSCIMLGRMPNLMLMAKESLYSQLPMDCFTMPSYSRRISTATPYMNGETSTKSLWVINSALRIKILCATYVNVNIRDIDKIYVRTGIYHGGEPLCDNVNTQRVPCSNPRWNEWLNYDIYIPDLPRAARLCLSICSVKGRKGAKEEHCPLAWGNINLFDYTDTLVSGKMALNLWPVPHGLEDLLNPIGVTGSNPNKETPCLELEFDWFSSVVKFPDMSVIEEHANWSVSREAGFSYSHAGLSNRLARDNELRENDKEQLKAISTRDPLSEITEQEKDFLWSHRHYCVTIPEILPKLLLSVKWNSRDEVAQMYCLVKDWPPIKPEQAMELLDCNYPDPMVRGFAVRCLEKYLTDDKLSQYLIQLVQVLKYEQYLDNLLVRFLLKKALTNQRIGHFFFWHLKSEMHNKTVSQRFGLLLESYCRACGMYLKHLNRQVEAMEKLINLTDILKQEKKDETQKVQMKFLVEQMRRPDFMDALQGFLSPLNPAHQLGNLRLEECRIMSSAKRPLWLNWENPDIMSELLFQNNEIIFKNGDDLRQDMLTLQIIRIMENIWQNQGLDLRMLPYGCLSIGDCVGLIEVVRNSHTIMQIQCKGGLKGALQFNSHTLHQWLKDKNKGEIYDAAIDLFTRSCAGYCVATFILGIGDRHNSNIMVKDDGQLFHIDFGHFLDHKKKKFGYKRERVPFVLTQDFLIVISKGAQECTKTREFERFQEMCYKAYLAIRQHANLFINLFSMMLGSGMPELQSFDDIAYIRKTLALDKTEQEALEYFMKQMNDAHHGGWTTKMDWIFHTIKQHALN

Compound | Kd (PI3Kβ) | Kd (PI3Kδ) | Kd (kinase enzymes [1]) | Kd (kinase enzymes [2]) | Kd (kinase enzymes [3]) | IC50 ([4]; Homo sapiens, PC-3, 1 h) | IC50 ([5]; Homo sapiens, PC-3, 1 h) | melting point | IC50 [4] | IC50 [5]
CC(c1cc(C(=O)N(C)C)cc2ncc(N3CCOCC3)nc12)N(C)c1cccc(Cl)c1 (single isomer, unassigned) [Compound 140] | 5130 nM | 15800 nM | 14800 nM | > 30200 nM | 25100 nM | 479 nM | > 513 nM | 80 °C |  | 
CC(Nc1cc(F)cc(F)c1)c1cc(CO)cc2ncc(N3CCOCC3)nc12 (single isomer, unassigned) [Compound 154b] | 490 nM | 14800 nM | 20900 nM | 25100 nM | 7760 nM |  |  | 90 °C | > 513 nM | > 513 nM
CC(Nc1cc(F)cc(F)c1)c1cc(CN2CC3(C2)CS(=O)(=O)C3)cc2ncc(N3CCOCC3)nc12 (single isomer, unassigned) [Compound 160] | 2 nM | 575 nM | 813 nM | 19500 nM | 9770 nM |  |  | 229 °C | 58 nM | 23 nM
CC(Nc1cc(F)cc(F)c1)c1cc(CN2CC3(C2)CS(=O)(=O)C3)cc2ncc(N3CCOCC3)nc12 (single isomer, unassigned) [Compound 161] | 776 nM | > 30200 nM | > 30200 nM | > 30200 nM | > 30200 nM |  |  | 228 °C | > 513 nM | > 513 nM
CC(Nc1cc(F)cc(F)c1)c1cc(CNCC(F)(F)F)cc2ncc(N3CCOCC3)nc12 (single isomer, unassigned) [Compound 162] | 9 nM | 1230 nM | 3980 nM | > 30200 nM | 24500 nM |  |  | 80 °C | 209 nM | 91 nM
CNCCNC(=O)c1cc(C(C)Oc2cc(F)cc(F)c2)c2nc(N3CCOCC3)cnc2c1 (single isomer, unassigned) [Compound 165] | 0.3 nM | 182 nM | 1780 nM | 14100 nM | 5490 nM |  |  | 80 °C | 45 nM | 11 nM
CC(Nc1cc(F)cc(F)c1)c1cc(C(=O)N2CCN(CC(F)(F)F)CC2)cc2ncc(N3CCOCC3)nc12 (single isomer, unassigned) [Compound 172] | 1260 nM | > 30200 nM | > 30200 nM | > 30200 nM | > 30200 nM | > 513 nM | > 513 nM | 130 °C |  | 
CNCCOCCN(C)C(=O)c1cc(C(C)Nc2cc(F)cc(F)c2)c2nc(N3CCOCC3)cnc2c1 (single isomer, unassigned) [Compound 174] | 1200 nM | 26300 nM | > 30200 nM | > 30200 nM | > 30200 nM |  |  | 80 °C | > 513 nM | > 513 nM
CC(Nc1cc(F)cc(F)c1)c1cc(C(=O)N(C)CCN(C)C)cc2ncc(N3CCOCC3)nc12 (single isomer, unassigned) [Compound 181] | 117 nM | 20400 nM | 5010 nM | > 30200 nM | 17800 nM |  | ~398 nM | 134 °C | ~447 nM | 
CC(Nc1cc(F)cc(F)c1)c1cc(C(=O)NCCO)cc2ncc(N3CCOCC3)nc12 (single isomer, unassigned) [Compound 188] | 1 nM | 182 nM | 851 nM | 16200 nM | 2290 nM |  |  | 80 °C | 22 nM | 15 nM
CC(Nc1cc(F)cc(F)c1)c1cc(CN2CCOCC23COC3)cc2ncc(N3CCOCC3)nc12 (single isomer, unassigned) [Compound 192] | 9120 nM | > 30200 nM | > 30200 nM | > 30200 nM | > 30200 nM |  |  | 229 °C | > 513 nM | > 513 nM
CC(Oc1cc(F)cc(F)c1)c1cc(C(=O)NCCO)cc2ncc(N3CCOCC3)nc12 (single isomer, unassigned) [Compound 199] | 68 nM | 5490 nM | 4900 nM | 28800 nM | 11700 nM | > 513 nM | 309 nM | 140 °C |  | 
CC(Nc1cc(F)cc(F)c1)c1cc(C(=O)NC[C@@H](C)O)cc2ncc(N3CCOCC3)nc12 (single isomer, unassigned) [Compound 201] | 2 nM | 710 nM | 1460 nM | 16500 nM | 4450 nM |  |  | 70 °C | 42 nM | 26 nM
COCCNC(=O)c1cc(C(C)Nc2cc(F)cc(F)c2)c2nc(N3CCOCC3)cnc2c1 (single isomer, unassigned) [Compound 203] | 5 nM | 912 nM | 1660 nM | 21400 nM | 6610 nM |  |  | 118 °C | 98 nM | 44 nM
COCCNC(=O)c1cc(C(C)Nc2cc(F)cc(F)c2)c2nc(N3CCOCC3)cnc2c1 (single isomer, unassigned) [Compound 204] | 1070 nM | > 30200 nM | > 30200 nM | > 30200 nM | 14500 nM |  |  | 80 °C | > 513 nM | > 513 nM
CC(Nc1cc(F)cc(F)c1)c1cc(CN2C[C@@H](C)O[C@@H](C)C2)cc2ncc(N3CCOCC3)nc12 (single isomer, unassigned) [Compound 206] | 7080 nM | > 30200 nM | > 30200 nM | > 30200 nM | > 30200 nM |  |  | 80 °C | > 513 nM | > 513 nM
CC(Nc1cc(F)cc(F)c1)c1cc(CN2CCn3nccc3C2)cc2ncc(N3CCOCC3)nc12 (single isomer, unassigned) [Compound 210] | 12 nM | 1020 nM | 3160 nM | > 30200 nM | > 30200 nM |  |  | 80 °C | 245 nM | 151 nM
CC(C)NCCNC(=O)c1cc(C(C)Nc2cc(F)cc(F)c2)c2nc(N3CCOCC3)cnc2c1 (single isomer, unassigned) [Compound 211] | 1 nM | 190 nM | 3370 nM | 20200 nM | 3600 nM |  |  | 206 °C | 36 nM | 22 nM
CC(C)NCCNC(=O)c1cc(C(C)Nc2cc(F)cc(F)c2)c2nc(N3CCOCC3)cnc2c1 (single isomer, unassigned) [Compound 212] | 12 nM | 3290 nM | 7090 nM | 13800 nM | 5070 nM |  |  | 204 °C | 398 nM | 328 nM
CC(Nc1cc(F)c(F)c(F)c1)c1cc(C(=O)NCCO)cc2ncc(N3CCOCC3)nc12 (single isomer, unassigned) [Compound 213] | 2 nM | 269 nM | 2090 nM | 7760 nM | 3240 nM |  |  | 80 °C | 33 nM | 25 nM
